Series [1] concerns HCT116 human colon cancer cells. In words: Toxicity of LNP-siTOP1 and irinotecan on HCT116 cells (CCK-8 cell viability). The class given is cell-based. The conditions noted are these: Homo sapiens, HCT-116; HCT116, 72 h, CCK-8. The method, then:
(§1) After 72 h of transfection, 10 μL of CCK-8 solution was added to each well, and the cells were cultured in the incubator with 5% CO2 at 37° C. for another 4 h. The absorbance value at 450 nm was measured using a microplate reader. Cell viability was calculated according to the following formula: […]
(§2) On the day before transfection, HCT116 human colon cancer cells were seeded into a 96-well cell culture plate at 5000 cells/well, the culture medium being IMDM containing 10% FBS and 1% Penicillin-Streptomycin, and after plating, the cell culture plate was placed in an incubator with 5% CO2 at 37° C. for 24 h to allow the cells to adhere to the wall. 3 replicate wells were made for each group. On the day of transfection, the culture medium was changed to an IMDM culture medium without antibiotics (containing 10% FBS). LNP-siTOP1-1604 diluted with Opti-MEM culture medium was added, and the working concentrations of the siRNA were 500, 200, 100, 50, 20, and 5 nM. The control groups were Blank (Opti-MEM at the equal volume) and the positive control drug, irinotecan, at concentrations of 500, 200, 100, 50, 20, 5, and 1 μM. The cell culture plate was placed in the incubator with 5% CO2 at 37° C., and the cells were cultured for another 72 h. The cell viability was detected according to the method in Example 3 (Table 10). Fitting was performed using Graphpad software.

Assay in series [2]: as above
The class given is cell-based, human. To be noted: human, HCT116 colon cancer cells, HCT116, 72 h. As for the experimental part: as §1, §2

For series [3], the system named is TOP1 mRNA. In words: Inhibitory effects of modified sequences of siTOP1-1604 on TOP1 mRNA in PC-3 cells. The class given is cell-based, human. The conditions noted are these: PC-3, siRNA 50 nM; for Relative expression level, mean value: 48 h after transfection, Blank = 100.00. The method, then:
PC-3 human prostate cancer cells were transfected with the modified siTOP1 according to the method in Example 2 at a siRNA working concentration of 50 nM. TOP1 mRNA levels were detected 48 h after the transfection. The control groups were Blank (Opti-MEM at the equal volume), Lipofectamine™ RNAiMAX (Lipo) transfection reagent, and the positive control unmodified siTOP-1604.

[Ψ] = pseudouridine; d = 2'-deoxy (DNA); r = 2'-OH (RNA)

In the case of `CCc1c2c(nc3ccc(OC(=O)N4CCC(N5CCCCC5)CC4)cc13)-c1cc3c(c(=O)n1C2)COC(=O)[C@]3(O)CC` [Irinotecan], it took 9.33 µM to reach half-maximal inhibition in series [1] (IC50). For the same compound, the viability (usually a read-out of living cells in per cent, often relative to untreated cells) at 72 h, 1 µM in series [2] (1 μM) is 109%. Besides, the viability at 72 h, 5 µM in series [2] (5 μM) was found to be 55.4%. The viability at 72 h, 20 µM in series [2] (20 μM) was determined as 31.8%. The viability at 72 h, 50 µM in series [2] (50 μM) amounted to 16.9%. For the same compound, the viability at 72 h, 100 µM in series [2] (100 μM) was 9.69%. Further, the viability at 72 h, 200 µM in series [2] (200 μM) amounted to 8.18%. The viability at 72 h, 500 µM in series [2] (500 μM) amounted to 11.9%.
Regarding “siTOP1-1604-m4: Pseudouridine-modified siTOP1-1604; sense strand SEQ ID NO: 55, antisense strand SEQ ID NO: 56 (sense GUGUGGACAAGAUCCGGAATT; antisense UUCCGGAUCUUGUCCACACTT; sense: sugars from the 5' end r19 d2, [Ψ] at 2, 4, 13, backbone not given here; antisense: sugars from the 5' end r19 d2, [Ψ] at 1, 2, 8, 10, 11, 13, backbone not given here)”, the “Expression of TOP1 mRNA inhibited to” value in series [3] (48 h, compared to the control groups) came out at 4.3%. The “Relative expression level, mean value” in series [3] is listed as 4.30.
In the case of “siTOP1-1604-m1: Methylation-modified siTOP1-1604; sense strand SEQ ID NO: 51, antisense strand SEQ ID NO: 52 (sense GUGUGGACAAGAUCCGGAATT; antisense UUCCGGAUCUUGUCCACACTT; DNA at T, 2'-O-methyl at CU, RNA at AG, backbone not given here)”, the “Relative expression level, mean value” in series [3] was found to be 71.77.

The values above are taken from patent publication US20260139254A1, “INTERFERING RNA FOR INHIBITING TOP1 GENE EXPRESSION AND USE THEREOF” (JENKEM TECHNOLOGY CO., LTD. (BEIJING), priority 2022, published 2026).
